Columns and labels:
Assay type in all cases: functional
NCI-H322M [1] = assay: Cytotoxicity against human NCI-H322M cells assessed as cell growth at 100 uM after 1 to 11 days by MTT assay; details: read-out: Activity
OVCAR-8 = assay: Cytotoxicity against human OVCAR8 cells assessed as cell growth at 0.1 uM after 1 to 11 days by MTT assay; details: read-out: Activity
NCI-H522 [2] = assay: Cytotoxicity against human NCI-H522 cells assessed as cell growth at 1 mM after 1 to 11 days by MTT assay; details: read-out: Activity
COLO 205 = assay: Cytotoxicity against human COLO205 cells assessed as cell growth at 1 uM after 1 to 11 days by MTT assay; details: read-out: Activity
NCI-H522 [3] = assay: Cytotoxicity against human NCI-H522 cells after 1 to 11 days by MTT assay
SN12C = assay: Cytotoxicity against human SN12C cells assessed as cell growth at 0.1 uM after 1 to 11 days by MTT assay; details: read-out: Activity
NCI-H23 = assay: Cytotoxicity against human NCI-H23 cells assessed as cell growth at 10 uM after 1 to 11 days by MTT assay; details: read-out: Activity
NCI-H226 = assay: Cytotoxicity against human NCI-H226 cells assessed as cell growth at 100 uM after 1 to 11 days by MTT assay; details: read-out: Activity
MDA-MB-468 [4] = assay: Cytotoxicity against human MDA-MB-468 cells assessed as cell growth at 10 uM after 1 to 11 days by MTT assay; details: read-out: Activity
HOP-92 = assay: Cytotoxicity against human HOP92 cells assessed as cell growth at 100 uM after 1 to 11 days by MTT assay; details: read-out: Activity
OVCAR-3 = assay: Cytotoxicity against human OVCAR-3 cells assessed as cell growth at 0.1 uM after 1 to 11 days by MTT assay; details: read-out: Activity
[5] = Cytotoxicity against human Hs 578T cells after 1 to 11 days by MTT assay
LOX IMVI = assay: Cytotoxicity against human LOXIMVI cells assessed as cell growth at 100 uM after 1 to 11 days by MTT assay; details: read-out: Activity
BT-549 = assay: Cytotoxicity against human BT549 cells assessed as cell growth at 100 uM after 1 to 11 days by MTT assay; details: read-out: Activity
SK-MEL-5 = assay: Cytotoxicity against human SK-MEL-5 cells assessed as cell growth at 1 uM after 1 to 11 days by MTT assay; details: read-out: Activity
RXF 393 = assay: Cytotoxicity against human […] cells after 1 to 11 days by MTT assay
UACC-62 = assay: Cytotoxicity against human UACC62 cells assessed as cell growth at 1 uM after 1 to 11 days by MTT assay; details: read-out: Activity
NCI-H322M [6] = assay: Cytotoxicity against human NCI-H322M cells after 1 to 11 days by MTT assay
UACC-257 [7] = assay: Cytotoxicity against human UACC257 cells assessed as cell growth at 10 uM after 1 to 11 days by MTT assay; details: read-out: Activity
HCT-15 = assay: Cytotoxicity against human HCT15 cells assessed as cell growth at 1 mM after 1 to 11 days by MTT assay; details: read-out: Activity
UACC-257 [8] = assay: Cytotoxicity against human UACC257 cells assessed as cell growth at 1 uM after 1 to 11 days by MTT assay; details: read-out: Activity
786-0 = assay: Cytotoxicity against human 786-0 cells after 1 to 11 days by MTT assay
TK-10 = assay: Cytotoxicity against human TK10 cells assessed as cell growth at 0.1 uM after 1 to 11 days by MTT assay; details: read-out: Activity
SW-620 = assay: Cytotoxicity against human SW620 cells assessed as cell growth at 0.1 uM after 1 to 11 days by MTT assay; details: read-out: Activity
[9] = Cytotoxicity against human Hs 578T cells assessed as cell growth at 0.1 uM after 1 to 11 days by MTT assay; details: read-out: Activity
MDA-MB-468 [10] = assay: Cytotoxicity against human MDA-MB-468 cells after 1 to 11 days by MTT assay
SK-MEL-28 [11] = assay: Cytotoxicity against human SK-MEL-28 cells assessed as cell growth at 10 uM after 1 to 11 days by MTT assay; details: read-out: Activity
MDA-MB-231 = assay: Cytotoxicity against human MDA-MB-231 cells after 1 to 11 days by MTT assay
Malme-3M = assay: Cytotoxicity against human MALME-3M cells assessed as cell growth at 100 uM after 1 to 11 days by MTT assay; details: read-out: Activity
OVCAR-5 [12] = assay: Cytotoxicity against human OVCAR5 cells assessed as cell growth at 0.1 uM after 1 to 11 days by MTT assay; details: read-out: Activity
OVCAR-5 [13] = assay: Cytotoxicity against human OVCAR5 cells after 1 to 11 days by MTT assay
IGROV-1 = assay: Cytotoxicity against human IGROV1 cells assessed as cell growth at 100 uM after 1 to 11 days by MTT assay; details: read-out: Activity
OVCAR-4 = assay: Cytotoxicity against human OVCAR4 cells assessed as cell growth at 100 uM after 1 to 11 days by MTT assay; details: read-out: Activity
T47D = assay: Cytotoxicity against human T47D cells assessed as cell growth at 1 mM after 1 to 11 days by MTT assay; details: read-out: Activity
A498 = assay: Cytotoxicity against human A498 cells assessed as cell growth at 1 uM after 1 to 11 days by MTT assay; details: read-out: Activity
SK-MEL-28 [14] = assay: Cytotoxicity against human SK-MEL-28 cells assessed as cell growth at 100 uM after 1 to 11 days by MTT assay; details: read-out: Activity
RPMI-8226 = assay: Cytotoxicity against human RPMI8226 cells after 1 to 11 days by MTT assay
HL-60(TB) = assay: Cytotoxicity against human HL-60(TB) cells assessed as cell growth at 100 uM after 1 to 11 days by MTT assay; details: read-out: Activity
SF-539 = assay: Cytotoxicity against human SF539 cells after 1 to 11 days by MTT assay
SF-268 = assay: Cytotoxicity against human SF268 cells assessed as cell growth at 1 mM after 1 to 11 days by MTT assay; details: read-out: Activity
UO-31 = assay: Cytotoxicity against human UO31 cells assessed as cell growth at 1 uM after 1 to 11 days by MTT assay; details: read-out: Activity
HCC 2998 = assay: Cytotoxicity against human HCC2998 cells assessed as cell growth at 100 uM after 1 to 11 days by MTT assay; details: read-out: Activity
[15] = read-out: LC50 (the source's name)

**Q.** Which results are given for `O=C1Nc2ncccc2/C1=C1/Nc2ccccc2/C1=N\O`?
**A.** growth at 100 µM (NCI-H322M [1]): 8%; growth at 0.1 µM (OVCAR-8): 79%; growth at 1000 µM (NCI-H522 [2]): 50%; growth at 1 µM (COLO 205): 87%; GI50 (NCI-H522 [3]): > 100 µM; TGI (NCI-H522 [3]): > 100 µM; CC50 (NCI-H522 [3]; [15]): > 100 µM; growth at 0.1 µM (SN12C): 93%; growth at 10 µM (NCI-H23): 83%; growth at 100 µM (NCI-H226): -5%; growth at 10 µM (MDA-MB-468 [4]): 80%; growth at 100 µM (HOP-92): 36%; growth at 0.1 µM (OVCAR-3): 99%; GI50 [5]: 2.39 µM; TGI [5]: > 100 µM; CC50 [5, 15]: > 100 µM; growth at 100 µM (LOX IMVI): 36%; growth at 100 µM (BT-549): 43%; growth at 1 µM (SK-MEL-5): 98%; GI50 (RXF 393): 1.22 µM; TGI (RXF 393): > 100 µM; CC50 (RXF 393; [15]): > 100 µM; growth at 1 µM (UACC-62): 88%; GI50 (NCI-H322M [6]): 1.35 µM; TGI (NCI-H322M [6]): > 100 µM; CC50 (NCI-H322M [6]; [15]): > 100 µM; growth at 10 µM (UACC-257 [7]): 114%; growth at 1000 µM (HCT-15): 24%; growth at 1 µM (UACC-257 [8]): 92%; GI50 (786-0): 7.46 µM; CC50 (786-0; [15]): > 100 µM; growth at 0.1 µM (TK-10): 101%; growth at 0.1 µM (SW-620): 99%; growth at 0.1 µM [9]: 97%; GI50 (MDA-MB-468 [10]): 3.01 µM; TGI (MDA-MB-468 [10]): > 100 µM; CC50 (MDA-MB-468 [10]; [15]): > 100 µM; growth at 10 µM (SK-MEL-28 [11]): 87%; GI50 (MDA-MB-231): 5.28 µM; TGI (MDA-MB-231): > 100 µM; CC50 (MDA-MB-231; [15]): > 100 µM; growth at 100 µM (Malme-3M): 13%; growth at 0.1 µM (OVCAR-5 [12]): 89%; GI50 (OVCAR-5 [13]): 93.9 µM; TGI (OVCAR-5 [13]): > 100 µM; CC50 (OVCAR-5 [13]; [15]): > 100 µM; growth at 100 µM (IGROV-1): 13%; growth at 100 µM (OVCAR-4): 48%; growth at 1000 µM (T47D): 21%; growth at 1 µM (A498): 85%; growth at 100 µM (SK-MEL-28 [14]): 54%; GI50 (RPMI-8226): 1.89 µM; TGI (RPMI-8226): 62.5 µM; CC50 (RPMI-8226; [15]): > 100 µM; growth at 100 µM (HL-60(TB)): 38%; GI50 (SF-539): > 100 µM; TGI (SF-539): > 100 µM; CC50 (SF-539; [15]): > 100 µM; growth at 1000 µM (SF-268): 54%; growth at 1 µM (UO-31): 80%; growth at 100 µM (HCC 2998): 39%

Reference: ChEMBL document CHEMBL1154822, “Synthesis and antiproliferative activity of 7-azaindirubin-3'-oxime, a 7-aza isostere of the natural indirubin pharmacophore” (J Nat Prod, 2009)
